Measurements reported in ChEMBL document CHEMBL3046919, “Synthesis and herbicidal activity of substituted pyrazole isothiocyanates” (Molecules, 2012).
Values after ≈ are worked out from the molar mass of the structure shown.

Legend:
Cyperus iria [1] = assay: Herbicidal activity against Cyperus iria at 75 g a.i./ha measured after 14 days relative to control; assay type: functional
Trifolium repens [2] = assay: Herbicidal activity against Trifolium repens at 75 g a.i./ha measured after 14 days relative to control; assay type: functional
Echinochloa crus-galli [3] = assay: Herbicidal activity against Echinochloa crus-galli (barnyard grass) at 75 g a.i./ha measured after 14 days relative to control; assay type: functional
Dactylis glomerata [4] = assay: Herbicidal activity against Dactylis glomerata at 75 g a.i./ha measured after 14 days relative to control; assay type: functional
Cyperus iria [5] = assay: Herbicidal activity against Cyperus iria measured after 14 days relative to control; assay type: functional, organism-based; settings: for EC50: 336 h
Echinochloa crus-galli [6] = assay: Herbicidal activity against Echinochloa crus-galli (barnyard grass) measured after 14 days relative to control; assay type: functional, organism-based; settings: for EC50: 336 h
Trifolium repens [7] = assay: Herbicidal activity against Trifolium repens measured after 14 days relative to control; assay type: functional, organism-based; settings: for EC50: 336 h
Dactylis glomerata [8] = assay: Herbicidal activity against Dactylis glomerata measured after 14 days relative to control; assay type: functional, organism-based; settings: for EC50: 336 h
Cyperus iria [9] = assay: Herbicidal activity against Cyperus iria at 15 g a.i./ha measured after 14 days relative to control; assay type: functional
Dactylis glomerata [10] = assay: Herbicidal activity against Dactylis glomerata at 15 g a.i./ha measured after 14 days relative to control; assay type: functional
Echinochloa crus-galli [11] = assay: Herbicidal activity against Echinochloa crus-galli (barnyard grass) at 15 g a.i./ha measured after 14 days relative to control; assay type: functional
Trifolium repens [12] = assay: Herbicidal activity against Trifolium repens at 15 g a.i./ha measured after 14 days relative to control; assay type: functional

Compound	Activity (Cyperus iria [1]) [%]	Activity (Trifolium repens [2]) [%]	Activity (Echinochloa crus-galli [3]) [%]	Activity (Dactylis glomerata [4]) [%]	Activity (Cyperus iria [5])	EC50 (Cyperus iria [5]) [µg/mL]	Activity (Echinochloa crus-galli [6])	EC50 (Echinochloa crus-galli [6]) [µg/mL]	Activity (Trifolium repens [7])	EC50 (Trifolium repens [7]) [µg/mL]	Activity (Dactylis glomerata [8])	EC50 (Dactylis glomerata [8]) [µg/mL]	Activity (Cyperus iria [9]) [%]	Activity (Dactylis glomerata [10]) [%]	Activity (Echinochloa crus-galli [11]) [%]	Activity (Trifolium repens [12]) [%]
CCOC(=O)c1c(SC)nn(-c2ccccc2)c1NCCCN=C=S	60.23	60.68	58.93	59.08	–	–	–	–	–	–	–	–	–	–	–	–
C=CCN=C=S [ALLYL ISOTHIOCYANATE]	32.59	13.33	25.86	40.12	–	–	–	–	–	–	–	–	–	–	–	–
N#Cc1c(SCc2ccccc2)nn(-c2ccccc2)c1NCCCN=C=S	86.53	75.57	79.39	79.26	Dose-dependent effect	65.8 (≈ 162 µM)	Dose-dependent effect	64.3 (≈ 159 µM)	Dose-dependent effect	67.7 (≈ 167 µM)	Dose-dependent effect	62.4 (≈ 154 µM)	–	–	–	–
CCOC(=O)c1ccccc1S(=O)(=O)NC(=O)Nc1nc(Cl)cc(OC)n1 [CHLORIMURON ETHYL]	–	–	–	–	–	12.9 (≈ 31.1 µM)	–	10.7 (≈ 25.7 µM)	–	9.98 (≈ 24.1 µM)	–	15.2 (≈ 36.7 µM)	92.23	78.25	98.32	95.69
CCOC(=O)c1c(SC)nn(C)c1NCCCN=C=S	58.96	62.39	52.32	56.25	–	–	–	–	–	–	–	–	–	–	–	–
CSc1nn(C)c(NCCCN=C=S)c1C#N	70.23	73.33	78.69	74.33	Dose-dependent effect	64.9 (≈ 243 µM)	Dose-dependent effect	65.3 (≈ 244 µM)	Dose-dependent effect	67.4 (≈ 252 µM)	Dose-dependent effect	59.4 (≈ 222 µM)	–	–	–	–
CCOC(=O)c1c(SCc2ccccc2)nn(-c2ccccc2)c1NCCCN=C=S	68.59	65.78	65.32	64.53	–	–	–	–	–	–	–	–	–	–	–	–
CCOC(=O)c1c(SCc2ccccc2)nn(C)c1NCCCN=C=S	55.36	45.12	63.32	46.53	–	–	–	–	–	–	–	–	–	–	–	–
Cn1nc(SCc2ccccc2)c(C#N)c1NCCCN=C=S	42.56	34.48	44.62	31.25	–	–	–	–	–	–	–	–	–	–	–	–
CSc1nn(-c2ccccc2)c(NCCCN=C=S)c1C#N	57.69	56.46	54.62	55.62	–	–	–	–	–	–	–	–	–	–	–	–
